The text below walks through data of US20150166664A1, “NOVEL THERAPEUTIC TREATMENTS WITH ANTI-HER2 ANTIBODIES HAVING A LOW FUCOSYLATION” (Glycotope GmbH, priority 2012, published 2015).

Assay [1] deals with incurable, locally advanced, recurrent or metastatic solid tumors. The conditions noted are these: i.v. every 3 weeks, cited from earlier work.
Assay [2] in a line: Prevention of infusion related reactions by pre-medication. The conditions noted are these: pretreatment with paracetamol 1000 mg evening before and 1 h before, optionally methylprednisolone 125 mg 30 min before. Type of assay: in vivo, human. How it is done: Without the use of steroids, IRRs occurred in all but one patient, at least once (grade 1 to 3). Therefore, it is recommended to use a pre-medication comprising and preferably consisting of steroids and paracetamol and to restrict the respective pre-medication to the first infusion and the single next infusion following an IRR. Preferably, paracetamol is given on the evening before and one hour before the infusion with the reduced […] anti-HER2 antibody. Steroids (for example 125 mg methylprednisolone) preferably will be administered 30 minutes before the infusion to the patient.

For another assay, the system named is SK-BR-3 cells. The assay can be described thus: MTT proliferation assay. The format is cell-based, human. Conditions: 20 nM, 4 days, positive control.

Method for SK-BR-3 cells: MTT assay is a non-radioactive assay based on the cleavage of the soluble yellow tetrazolium salt MTT (3-[4,5-Dimethylthiazol-2-yl]-2,5-diphenyltetrazolium bromide; Thiazolyl Blue) by mitochondrial dehydrogenases of viable cells. […] The absorption signal is a direct measure of viable cells in the culture.
Briefly, SK-BR-3 cells were grown for 2 days in 96-well flat bottom plates. […] Supernatant was completely removed and MTT was added. Cells were incubated for 2 hours with MTT at 37° C. in a humidified CO2 incubator. The supernatant was removed and cells were lysed using HCl and 2-propanol containing lysis buffer for 1 h at room temperature in the dark. Absorption at 570 nm/630 nm was measured in a plate reader Infinite F200 (Tecan Austria GmbH).

In the case of “pertuzumab: anti-HER2 antibody, HER dimerisation inhibitor”, the confirmed partial responses in assay [1] is given as 2 Patients. Moreover, the tumor regression in assay [1] (patients evaluable for response) was 3 of 20.
With `CC(=O)Nc1ccc(O)cc1` [paracetamol, N-(4-hydroxyphenyl)acetamide], in assay [2], the “patients who did not show any IRR upon Fuc− trastuzumab infusion” value is reported as approximately 50%.
As for `CC(=O)O[C@H]1C(=O)[C@@]2(C)[C@H]([C@H](OC(=O)c3ccccc3)[C@]3(O)C[C@H](OC(=O)[C@H](O)[C@@H](NC(=O)c4ccccc4)c4ccccc4)C(C)=C1C3(C)C)[C@]1(OC(C)=O)CO[C@@H]1C[C@@H]2O` [Taxol, paclitaxel], the “proliferation compared to the medium control” value in the assay on SK-BR-3 cells amounted to 6%.
